In PMC11969031, “The homeostasis of β‐alanine is key for Arabidopsis reproductive growth and development” (The Plant Journal, 2025):

Key:
[1] = molecular target: T1, AGT2_weak (AT4G39660, recombinant) (Arabidopsis thaliana, UniProt Q940M2); experiment: coupled NADH assay at […] nm (pyruvate dehydrogenase); type: biochemical; conditions: amino donor; 50 μM glyoxylate/2-oxoglutarate/pyruvate, 3 μM enzyme, 50 mM Tris pH 8.0, 30°C; degradation direction only
T1 construct: gene AGT2; first 29 residues (signal peptide) of 476 removed; codon-optimised synthetic gene, pET24a, C-terminal His6; E. coli BL21(DE3); Ni-NTA

[2] = molecular target: T2, Col-0-PYD4 (AT3G08860, recombinant) (Arabidopsis thaliana, UniProt Q9SR86); experiment: coupled NADH assay at […] nm (pyruvate or alanine dehydrogenase); type: biochemical; conditions: 50 mM Tris pH 8.0, 30°C
T2 construct: first 31 residues (signal peptide) removed; codon-optimised synthetic gene, pET24a, C-terminal His6; E. coli BL21(DE3); Ni-NTA
T2 sequence (Q9SR86 32-481): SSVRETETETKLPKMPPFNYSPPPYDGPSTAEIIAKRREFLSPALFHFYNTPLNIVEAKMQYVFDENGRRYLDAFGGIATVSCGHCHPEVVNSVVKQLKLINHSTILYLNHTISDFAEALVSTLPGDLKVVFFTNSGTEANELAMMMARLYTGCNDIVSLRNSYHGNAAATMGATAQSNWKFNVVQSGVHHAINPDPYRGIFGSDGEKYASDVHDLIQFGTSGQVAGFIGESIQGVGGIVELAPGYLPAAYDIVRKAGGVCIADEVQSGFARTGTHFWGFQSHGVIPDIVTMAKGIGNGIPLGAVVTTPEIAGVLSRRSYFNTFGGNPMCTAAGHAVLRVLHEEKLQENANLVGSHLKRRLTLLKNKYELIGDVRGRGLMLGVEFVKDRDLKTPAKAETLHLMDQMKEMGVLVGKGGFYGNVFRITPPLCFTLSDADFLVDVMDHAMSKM

T1 sequence (Q940M2 30-476): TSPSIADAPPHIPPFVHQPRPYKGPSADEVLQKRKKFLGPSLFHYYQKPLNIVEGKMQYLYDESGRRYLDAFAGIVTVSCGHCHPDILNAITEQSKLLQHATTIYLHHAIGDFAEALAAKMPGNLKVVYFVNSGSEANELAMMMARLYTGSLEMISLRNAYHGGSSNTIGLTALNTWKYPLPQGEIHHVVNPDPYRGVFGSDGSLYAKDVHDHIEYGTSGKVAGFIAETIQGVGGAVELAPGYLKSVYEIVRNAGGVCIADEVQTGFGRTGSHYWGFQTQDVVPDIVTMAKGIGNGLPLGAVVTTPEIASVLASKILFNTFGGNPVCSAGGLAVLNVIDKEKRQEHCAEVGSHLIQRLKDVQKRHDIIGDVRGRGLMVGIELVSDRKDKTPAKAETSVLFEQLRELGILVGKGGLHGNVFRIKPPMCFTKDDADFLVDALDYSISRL

C[C@H](N)C(=O)O [L‐alanine]
coupled NADH assay at 340 nm (pyruvate dehydrogenase) [1]: We also detected activity when L‐alanine was used as the amino donor
coupled NADH assay at 340 nm (pyruvate or alanine dehydrogenase) ([2]; amino donor (positive control enzyme; works in both directions)): activity when L‐alanine was used as the amino donor, but unlike PYD4, AGT2 only functions

NCCC(=O)O [β‐alanine]
coupled NADH assay at 340 nm (pyruvate or alanine dehydrogenase) ([2]; amino donor, acceptor not given): PYD4 was also able to use β‐alanine as an amino donor
